The record followed here is ChEMBL document CHEMBL1143566, “Discovery of a potent and selective inhibitor of cyclin-dependent kinase 4/6” (J Med Chem, 2005).

Assay [1] can be described thus: Inhibition of Cyclin dependent kinase 2-cyclinA.
Assay [2] concerns the target T1, Cyclin-dependent kinase 4/cyclin D (Homo sapiens, UniProt P11802).
Description: Inhibition of Cyclin-dependent kinase 4-cyclinD
The target in assay [3] is Cyclin-dependent kinase 2/cyclin A (Homo sapiens, UniProt P24941).
Description: Inhibition of Cyclin dependent kinase 2-cyclin A
Assay [4] concerns MDA-MB-435. As to the kind of experiment: In vitro inhibitory concentration was measured by the incorporation of [14C]thymidine in (human breast carcinoma) MDA-MB-435 cell line. The class given is functional, cell-based.
The test system of assay [5] is MDA-MB-435. Description: Inhibitory concentration was measured by the incorporation of [14C]-thymidine in (human breast carcinoma) MDA-MB-435 cell line. Format: functional, cell-based.
The test system of assay [6] is MDA-MB-435. Description: Inhibitory concentration was measured by the incorporation of [14C]thymidine in (human breast carcinoma) MDA-MB-435. The class given is functional, cell-based.
For assay [7], the system named is MDA-MB-468. As to the kind of experiment: In vitro inhibitory concentration was measured by the incorporation of [14C]thymidine in (human breast carcinoma) MDA-MB-468 cell line. The class given is functional, cell-based.
The nature of assay [8]: Inhibition of PDGF receptor.
Assay [9] deals with Fibroblast growth factor receptor (Homo sapiens, UniProt P22607+P11362+P22455+P21802). As to the kind of experiment: Inhibition of Fibroblast growth factor receptor. The class given is protein assay.
The subject of assay [10] is MDA-MB-468. As to the kind of experiment: Inhibitory concentration was measured by the incorporation of [14C]thymidine in (human breast carcinoma) MDA-MB-468 cell line. The class given is functional, cell-based.
The target in assay [11] is Cyclin-dependent kinase 2/cyclin E (Homo sapiens, UniProt P24941). As to the kind of experiment: Inhibition of Cyclin dependent kinase 2-cyclin E. The class given is protein-complex assay.
Assay [12] deals with T1, Cyclin-dependent kinase 4/cyclin D. As to the kind of experiment: Inhibition of [gamma-32P]-ATP binding to Cyclin dependant kinase 4-cyclinD. Format: protein-complex assay.

As usually defined, the IC50 is the concentration that inhibits the measured activity by half. `O=c1ccc2cnc(Nc3ccccc3)nc2n1C1CCCC1`: 12 nM corresponded to half-maximal inhibition in assay [1] (IC50). With `CCOC(=O)c1c(C)c2cnc(Nc3ccc(N4CCNCC4)cn3)nc2n(C2CCCC2)c1=O`, the IC50 in assay [2] turned out to be 49 nM. Regarding `CC(=O)c1c(C)c2cnc(Nc3ccc(N4C(C)COCC4C)cn3)nc2n(C2CCCC2)c1=O` (stereo unspecified), the IC50 was 30 nM in assay [2], > 5000 nM in assay [3] and 2040 nM in the assay with MDA-MB-435 [4]. `CCOCc1cc2cnc(Nc3ccc(N4CCNCC4)cn3)nc2n(C2CCCC2)c1=O`: the IC50 in the assay with MDA-MB-435 [5] was determined as 1000 nM.

On to `COCc1cc2cnc(Nc3ccc(N4CCNCC4)cn3)nc2n(C2CCCC2)c1=O`, for which the IC50 stood at 13 nM in assay [2], 3800 nM in assay [3] and 330 nM with MDA-MB-435 [5]. For the compound `O=c1c(CO)cc2cnc(Nc3ccc(N4CCNCC4)cn3)nc2n1C1CCCC1`, the IC50 in the assay with MDA-MB-435 [5] worked out at 560 nM. With `CC(=O)c1c(C)c2cnc(Nc3ccc(N4CCCCC4)cn3)nc2n(C2CCCC2)c1=O`, the IC50 with MDA-MB-435 [6] amounted to 1930 nM. For the compound `COCCOCc1cc2cnc(Nc3ccc(N4CCNCC4)cn3)nc2n(C2CCCC2)c1=O`, the half-inhibitory concentration (IC50) in the assay on MDA-MB-435 [5] was 2150 nM.

With `CC(=O)c1c(C)c2cnc(Nc3ccc(N4CCNCC4)cc3)nc2n(C2CCCC2)c1=O`, the IC50 in the assay with MDA-MB-468 [7] came out at 1100 nM; in [3] it was 230 nM; in the assay on MDA-MB-435 [4] it was 30 nM. Take `O=c1c(Br)cc2cnc(Nc3ccc(N4CCNCC4)cn3)nc2n1C1CCCC1`: the IC50 in assay [8] is > 5000 nM; in assay [9] it was > 5000 nM; in the assay on MDA-MB-468 [10], > 3000 nM; in assay [3], > 5000 nM; in the assay with MDA-MB-435 [5], 90 nM; in [11] it was > 5000 nM. Consider `CC(C)n1c(=O)ccc2cnc(Nc3ccc(N4CCNCC4)cn3)nc21`, for which the IC50 in assay [2] is > 5000 nM. Take `O=c1c(F)cc2cnc(Nc3ccc(N4CCNCC4)cn3)nc2n1C1CCCC1`: the midpoint of inhibition in the assay on MDA-MB-435 [5], the IC50, lay at 1100 nM. In the assay with MDA-MB-435 [6], `CC(=O)c1c(C)c2cnc(Nc3ccc(N4CCNC(C)(C)C4)cn3)nc2n(C2CCCC2)c1=O` displayed an IC50 of 420 nM. `COCCN(CCOC)c1ccc(Nc2ncc3c(C)c(C(C)=O)c(=O)n(C4CCCC4)c3n2)nc1`: the IC50 in assay [2] is 51 nM; in assay [3], 2050 nM.

In assay [12], `CCOCCOc1cc2cnc(Nc3ccc(N4CCNCC4)cn3)nc2n(C2CCCC2)c1=O` displayed an IC50 of 37 nM. On to `Cc1c(Br)c(=O)n(C2CCCC2)c2nc(Nc3ccccn3)ncc12`, for which, in assay [2], the IC50 was > 5000 nM. In turn, `CC(=O)c1c(C)c2cnc(Nc3ccc(N4CC(C)NC(C)C4)cn3)nc2n(C2CCCC2)c1=O` (stereo unspecified) returned an IC50 in the assay with MDA-MB-435 [6] of 570 nM. As for `Cc1cc2cnc(Nc3ccc(N4CCNCC4)cn3)nc2n(C2CCCC2)c1=O`, the IC50 in the assay with MDA-MB-435 [5] was 290 nM. As for `CC(=O)c1c(C)c2cnc(Nc3ccc(N4CCC(N)C4)cn3)nc2n(C2CCCC2)c1=O` (stereo unspecified), the IC50 in the assay on MDA-MB-435 [5] amounted to 340 nM. Regarding `O=c1c(Br)cc2cnc(Nc3ccc(N4CCNCC4)cc3)nc2n1C1CCCC1`, the values for the IC50 (in assay [9] (read-out: IC50); in the assay on MDA-MB-468 [10]; with MDA-MB-435 [5]) were 80 nM, 600 nM and 20 nM, respectively.

Regarding `CC(=O)c1c(C)c2cnc(Nc3ccc(N4CCC(O)CC4)cn3)nc2n(C2CCCC2)c1=O`, the IC50 in the assay with MDA-MB-435 [5] came out at 200 nM. Still for that read-out and setting: then `CC(=O)c1c(C)c2cnc(Nc3ccc(N4CCN(C)CC4)cn3)nc2n(C2CCCC2)c1=O`, with 325 nM; and `CC(=O)c1c(C)c2cnc(Nc3ccc(N4CCCNCC4)cn3)nc2n(C2CCCC2)c1=O`, with 70 nM. For the compound `CC(=O)c1c(C)c2cnc(Nc3ccc(N4CCNCC4)cn3)nc2n(C2CCCC2)c1=O` [PALBOCICLIB], the IC50 with MDA-MB-468 [10] was > 3000 nM; in the assay on MDA-MB-435 [5], 160 nM. `Cc1c(Br)c(=O)n(C2CCCC2)c2nc(Nc3ccc(N4CC(C)NC(C)C4)cn3)ncc12` (stereo unspecified) came in with an IC50 in the assay with MDA-MB-435 [6] of 570 nM. For `Cc1c(Br)c(=O)n(C2CCCC2)c2nc(Nc3ccc(N4CCCNCC4)cn3)ncc12`, the IC50 in assay [2] and in assay [3] was > 5000 nM throughout. In the assay on MDA-MB-435 [6], `CC(=O)c1cc2cnc(Nc3ccc(N4CCNCC4)cn3)nc2n(C2CCCC2)c1=O` displayed an IC50 of 2770 nM. Compound `CC(=O)c1c(C)c2cnc(Nc3ccc(N4CCOCC4)cn3)nc2n(C2CCCC2)c1=O` registered a 50% inhibitory concentration (IC50) in the assay on MDA-MB-435 [6] of 220 nM. Consider `CCc1cc2cnc(Nc3ccc(N4CCNCC4)cn3)nc2n(C2CCCC2)c1=O`, for which the values for the IC50 (in assay [2]; in assay [3]; in the assay with MDA-MB-435 [5]) were 22 nM, > 5000 nM and 1080 nM, respectively.

For the compound `Cc1c(Br)c(=O)n(C2CCCC2)c2nc(Nc3ccc(N4CCC(O)CC4)cn3)ncc12`, half-maximal inhibition with MDA-MB-435 [6] (IC50) required 1400 nM. `Nc1cc2cnc(Nc3ccc(N4CCNCC4)cn3)nc2n(C2CCCC2)c1=O`: the IC50 in assay [2] is 19 nM; in assay [3], > 5000 nM; in the assay with MDA-MB-435 [5] it was 190 nM.
